Test [1] concerns murine iNKT hybridoma N38-2C12. The test is described as follows: Co-culture of glycolipid-pulsed BMDC with iNKT cell hybridoma 2C12, IL-2 by ELISA. The class given is cell-based. The note with it: BMDC loaded 20 hours with 100 ng/mL glycolipid, 16 hours co-culture with 2C12 cells. The protocol:
(§1) The murine iNKT hybridoma N38-2C12 (Vα14Vβ8.1/8.2b) was provided by Brown University, Providence, Rhode Island, USA). Cells were cultured in DMEM Sigma) supplemented with 10% fetal calf serum (Invitrogen), 1% glutamine (Sigma), 1% penicillin streptomycin (Sigma), and 2-mercapto-ethanol (Sigma) (hereinafter called cDMEM). B16 melanoma cells were cultured in advanced RPMI (Sigma) supplemented with 10% fetal calf serum (Invitrogen), 1% glutamine (Sigma) and 1% penicillin streptomycin (Sigma). They were harvested using cell dissociation buffer, which was washed away twice first using the medium and second with PBS. 400,000 cells were intravenously (IV) injected within 30 minutes after harvest into the tail vein.
For in vitro stimulation, murine iNKT hybridoma cells at 5·10^4 cells/well in 96-well plates were stimulated with the 10^5 cells/well glycolipid pulsed BMDCs in cDMEM for 4, 16 or 24 hours at […], and levels of murine IL-2 secretion were determined by ELISA.
iNKT cell polarization is a matter of debate and it has been shown uptake by different cells can also affect the outcome. To avoid these host dependent parameters we set up a simple in vitro model, which consists of co-cultures of glycolipid-pulsed bone marrow dendritic cells and an iNKT cell hybridoma (i.c. 2C12 containing a Vβ8.2 TCR). IL-2 production is used as a read-out for TCR affinity for the whole CD1d-glycolipid complex. […] To confirm this we also measured intracellular IL-2 production in 2C12 cells already 4 hours after coculture, where a similar result was obtained (FIG. 2). Because IL-2 production is a downstream event of TCR signaling we analyzed TCRβ expression.
In order to assess the antigenic activity of the triazolyl-containing galactopyranosyl compounds of example 10, bone marrow dendritic cells (BMDC) were loaded during 20 hours with 100 ng/mL glycolipid. After 16 hours of co-culture with 2C12 cells (iNKT cell hybridoma), IL-2 secretion was determined by ELISA.

Test [2] concerns the target T1, TCR / mCD1d-glycolipid complex (Mus musculus, UniProt P11609).
T1 sequence (P11609 19-297): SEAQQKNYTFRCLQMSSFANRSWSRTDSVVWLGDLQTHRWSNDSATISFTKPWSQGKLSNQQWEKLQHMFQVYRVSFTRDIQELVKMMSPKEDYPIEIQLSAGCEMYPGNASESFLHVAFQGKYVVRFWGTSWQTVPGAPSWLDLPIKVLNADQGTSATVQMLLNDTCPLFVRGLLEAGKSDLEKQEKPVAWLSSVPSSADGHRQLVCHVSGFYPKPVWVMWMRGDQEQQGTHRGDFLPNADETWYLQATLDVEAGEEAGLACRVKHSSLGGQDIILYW
T1 sequence (P01887 21-119 partner): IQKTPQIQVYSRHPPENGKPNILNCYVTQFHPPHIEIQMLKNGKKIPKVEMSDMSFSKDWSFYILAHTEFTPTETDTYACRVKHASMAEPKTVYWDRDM
The experiment in a line: Surface plasmon resonance: TCR binding to mCD1d-glycolipid complexes. The note with it: SPR, 25° C., Langmuir 1:1 model; read-out: KD. The protocol: SPR studies were conducted using a Biacore 3000 (Biacore). Glycolipids were dissolved at 1 mg/ml in DMSO and before loading were diluted to 0.25 mg/ml with vehicle solution (50 mM Tris-HCl pH 7.0, 4.8 mg/ml sucrose, 0.5 mg/ml deoxycholate and 0.022% Tween-20), heated for 20 minutes at 80° C. After cooling 1 μg of each lipid was incubated with 10 μg enzymatically biotinylated mCD1d overnight at room temperature. In one embodiment, 400-600 response units (RU) of mCD1d-glycolipid complexes were immobilized onto a CA capture chip (Biacore). A reference surface was generated in another flow channel with unloaded mCD1d immobilized at RU of 500. During the association phase, a series of increasing concentrations of TCR (in 10 mM HEPES, 150 mM NaCl, 3.0 mM EDTA, pH 7.4) in duplicate were injected for 80 seconds and the dissociation phase (running buffer only) was monitored over 45 minutes. Experiments were carried out at 25° C. with a flow rate of 30 μl/min and performed at least two to three times, each time with a different batch of TCR preparation. Kinetic parameters were calculated after subtracting the response to mCD1d molecules in the reference channel, using a simple Langmuir 1:1 model in the BIA evaluation software version 4.1. One representative sensorgram for each lipid is shown. […]
Background: Surface plasmon resonance follows binding to a sensor surface in real time, without labels.

The next test deals with B16 melanoma cells. The experiment in a line: B16 melanoma lung metastasis model with glycolipid-loaded BMDC. The test is classed as in vivo, mice. The following applies: 10,000 glycolipid pulsed BMDC. The protocol:
as §1
In order to determine if the new glycolipids can also mimic the anti-metastatic activity of NU-α-GalCer, we examined them in the B16 lung melanoma model. […] As little as 10,000 pulsed BMDC were enough to exert this marked tumor response. To analyze if these anti-tumor results still correspond to strong cytokine responses mice were bled 16 hours after injection of 10,000 pulsed bone marrow dendritic cells. […] Strikingly, the IL-12 results were not different between the 2 doses in contrast to the IFN-γ production, which was more dose-dependent (FIG. 9). […]

For test [3], the system named is spleen DCs (CD11c CD11b double positive). The experiment in a line: Co-stimulatory molecule expression on spleen dendritic cells after glycolipid-pulsed BMDC. The class given is in vivo, C57/BL6 mice. The note with it: 600000 glycolipid-pulsed BMDC. An excerpt: Spleen cells were isolated. Lymphocytes were isolated at the interface and washed, depleted with an anti-CD3 kit (Miltenyi Biotec, Sunnyvale, […]) and re-suspended in a staining buffer containing saturating amount of anti-Fcy Receptor type II/type III monoclonal antibodies (Miltenyi). Hereafter cells were stained with fluorochrome-conjugated mAbs (all from Bioscience) directed against the described antigens. Live cells (exclusion with DAPI) were acquired on a FACSCanto (BD) flow cytometer and analyzed using FlowJo (Tree Star) software.
Expression of co-stimulatory markers at the cell surface is linked to cytokine polarization because this determines the degree of activation of by-stander cells such as NK cells, whose IFN-y production is responsible for Th1 polarized cytokine profile. For α-C-GalCer, it has been shown that expression of CD40 is essential for IL-12 and subsequent NK cell dependent IFN-γ production. In contrast, OCH, a Th2 polarizing antigen, is not able to induce CD40 expression at the surface of DCs. Additionally OX40L up-regulation by dendritic cells (DC) has been found important for α-GalCer dependent tumour killing.
Glycolipid stimulation of iNKT cells leads to CD28 expression, and induces CD80 and CD86 expression at the dendritic cell surface, which is required for induction of IL-12 by dendritic cells. […]

For test [4], the system named is iNKT cells. The experiment in a line: In vivo cytokine secretion after intravenous injection of glycolipid-pulsed BMDC. Also on record: species or system C57BL/6 mice. The protocol:
(§2) For in vivo activation of iNKT cells C57BL/6 mice were either intraperitoneally injected with 5 μg glycolipid (dissolved in PBS) or intravenously with 6·10^5 or 1·10^4 glycolipid pulsed BMDCs.
(§3) Next we examined if the glycolipid pulsed BMDC behave similarly in vivo. For cytokine analysis we bled the mice at several time points after injection. We focused on IFN-γ and IL-12 secretion.
In order to determine if the new glycolipids can also mimic the anti-metastatic activity of NU-α-GalCer, we examined them in the B16 lung melanoma model. […] As little as 10,000 pulsed BMDC were enough to exert this marked tumor response. To analyze if these anti-tumor results still correspond to strong cytokine responses mice were bled 16 hours after injection of 10,000 pulsed bone marrow dendritic cells. […] Strikingly, the IL-12 results were not different between the 2 doses in contrast to the IFN-γ production, which was more dose-dependent (FIG. 9). This might indicate that other cytokines such as IL-18, which is also necessary for the induction of IFN-γ by NK cells might play an additional role in iNKT cell dependent Th1 polarization.

The test system of another test is human iNKT cells. The experiment in a line: Cytokine secretion in cultures of purified human iNKT cells. The class given is cell-based. The note with it: glycolipid 100 ng/ml pulsed PBMCs, 24 hours. The protocol: Human iNKT cells from healthy adult individuals were sorted and expanded. PBMCs were isolated by means of density centrifugation, incubated overnight in the presence of indicated glycolipids (100 ng/ml), washed and irradiated (40 Gy). Subsequently, 5×10^4 iNKT cells were stimulated with 10^5 glycolipid pulsed autologous PBMCs in RPMI 1640 media supplemented with 10% human AB serum (Lonza), 1% sodium pyruvate, 1% nonessential amino acids and 1% penicillin/streptomycin (all from Invitrogen). Supernatants were collected after 24 hours of culture and cytokine levels were determined by means of cytometric Bead Arrays (CBA) following the manufacturer's instructions (BD).
as §3

Test [5] relates to iNKT cells. The test is described as follows: In vivo activation of iNKT cells: serum cytokines after intraperitoneal glycolipid injection. The following applies: 16 hours after intraperitoneal injection of 5 μg glycolipid. The arrangement: species or system C57BL/6 mice. The protocol: Glycolipids from this invention were synthesized according to the procedure of example 1. α-C-GalCer was kindly provided by Aaron Diamond AIDS Research Center (New York, USA) and the NIH Tetramer Core Facility. Lyophilized glycolipids were dissolved in pure dimethylsulfoxide (DMSO) (Sigma) at a 10 mg/mL concentration and stored at −20° C. Glycolipids were solubilized by adding phosphate buffer saline (PBS) (Invitrogen) or a standard vehicle (96 mg/mL sucrose, 10 mg/mL sodium deoxycholate, 0,05% Tween 20), warming to 80° C. for 20 minutes, and then sonication for 10 minutes.
as §2
In order to assess the antigenicity of the carbamate-containing galactopyranosyl compounds of example 1 and their ability to induce Th1-skewing, mice were bled at 16 hours after intraperitoneal glycolipid exposure because this is known to afford peak levels of IFN-y, the hallmark Th1 cytokine. […] IFN-y production in response to glycolipid dependent iNKT cell activation is known to be dependent on IL-12^10-12, which was therefore analyzed.

Test [6] relates to collagen-induced arthritis (CIA) and experimental auto-immune encephalomyelitis (EAE). The following applies: CIA and EAE in mice; cited from earlier work.
[7] abbreviates: 16 hours after injection of 10,000 pulsed BMDC.

“(2S,3S,4R)-1-O-(6-deoxy-6-(4-butyltriazol-1-yl)-α-D-galactopyranosyl)-2-hexacosylamino-octadecane-1,3,4-triol [Compound 44]”: in test [1], the IL-2 secretion result is listed as “tend to induce the highest IL-2 secretion”.
On the same count and under the same terms, the entry for “(2S,3S,4R)-1-O-(6-deoxy-6-(triazol-1-yl)-α-D-galactopyranosyl)-2-hexacosylamino-octadecane-1,3,4-triol [non-substituted triazolyl compound]” is “even better in stimulating iNKT cells to release IL-2”.
One may read the Kd as the constant that tells how readily two partners part at equilibrium. For `CCCCCCCCCCCCCCCCCCCCCCCCCC(=O)NC(COC1OC(COC(=O)Nc2ccncc2)C(O)C(O)C1O)C(O)C(O)CCCCCCCCCCCCCC` [PyrC-α-GalCer, (2S,3S,4R)-1-O-(6-O-(4pyridinylcarbamoyl)-α-D-galactopyranosyl)-2-hexa-cosylamino-octadecane-1,3,4-triol], the Kd in test [2] worked out at 0.033 µM. In addition, the “prevention of tumor metastasis (lung nodules)” value with B16 melanoma cells was “still better in preventing tumor metastasis”. Further, the “CD40 up-regulation on spleen DCs” value in test [3] was “induces early CD40 up-regulation”. Also, in the test on iNKT cells [4] (setting [7]), the IFN-γ production entry is given as “significantly higher” and the IL-12 production result is “significantly higher”. Besides, in the test with iNKT cells [4] (24 hours after injection of glycolipid pulsed BMDC), the “IL-12 secretion after 24 hours” value is listed as “markedly higher than for NU-α-GalCer”. In the test on iNKT cells [4] (after injection of glycolipid pulsed BMDC), the IL-12 secretion result is given as “very high”. The “IFN-γ level time course” value in the test with iNKT cells [4] (several time points after injection of glycolipid pulsed BMDC) is reported as “increased up to 24 hours after injection”. Further, the “Th1-biased cytokine secretion (more IFN-γ and IL-12 and less IL-4 and IL-13 compared to α-GalCer)” value with human iNKT cells is recorded as “able to induce Th1-biased cytokine secretion”. Also, the IL-12 production result with iNKT cells [5] is “significantly higher IL-12 levels than NU-α-GalCer”.
As to `CCCCCCCCCCCCCCCCCCCCCCCC(=O)N[C@@H](COC1OC(CO)C(O)C(O)C1O)[C@H](O)[C@H](O)CCCCC` (some centres unmarked) [OCH], the “effect on Th1-mediated auto-immune diseases” value in test [6] was “protective effect”.
As to “(2S,3S,4R)-1-O-(6-deoxy-6-(4-phenyltriazol-1-yl)-α-D-galactopyranosyl)-2-hexacosylamino-octadecane-1,3,4-triol [Compound 45]”, the IL-2 secretion entry in test [1] is given as “tend to induce the highest IL-2 secretion”.

These data come from US9321796B2, “Galactopyranosyl derivatives useful as medicaments” (Universiteit Gent, priority 2012, dated 2016).
